From patent publication US20220062331A1, “TREATING IRON DEFICIENCY IN SUBJECTS AT RISK OF CARDIOVASCULAR ADVERSE EVENTS AND IRON FOR THE MANAGEMENT OF ATRIAL FIBRILLATION” (PHARMACOSMOS HOLDING A/S, priority 2019, published 2022)

Key:
[1] = test system: iFGF23 (intact FGF23); settings: cited from earlier work
[2] = Randomized double-blind placebo-controlled trial in chronic heart failure patients: P-wave dispersion on 12-lead ECG (post-hoc analysis); format: in vivo, human
Source text: This study was a post-hoc analysis of a randomized, double-blind, placebo-controlled trial that was approved by the South-Central Berkshire ethics committee, the UK Medicines and Healthcare products Regulatory Agency, and the King's College Hospital independent research governance board. King's College London University and King's College Hospital NHS Foundation Trust were co-sponsors. The King's Health Partners clinical trial office monitored the trial and ensured compliance with the International Conference on Harmonization guidelines for Good Clinical Practice and the Declaration of Helsinki. Written informed consent was obtained from all patients. FIG. 1 represents a flow chart of the trial. A total of 25 chronic heart failure patients in normal sinus rhythm were recruited into this trial with 15 randomized to intravenous saline placebo and 10 randomized to intravenous iron isomaltoside.
Patients with stable, symptomatic, chronic heart failure and a left ventricular ejection fraction <45% were recruited from dedicated heart failure clinics at King's College Hospital, London. Main exclusion criteria were a history of acquired iron overload, known haemochromatosis or first degree relatives with haemochromatosis; an allergic disorder (e.g., asthma, eczema, and anaphylactic reactions); prior hypersensitivity to IV iron drugs or their excipients; active infection, bleeding, malignancy, haemolytic anemia, rheumatoid arthritis, and myelodysplasia; and HIV/AIDS.
After inclusion into the trial, patients had endpoints assessed which included a 12-lead surface electrocardiogram to measure P-wave dispersion (difference between maximum and minimum P-wave duration across all leads), heart rate (HR), PR interval, QRS duration, QT interval and corrected QT interval (QTc). FIG. 2 is an example of a surface electrocardiogram with P-wave durations measured. An echocardiogram was also done to measure LVEF, left ventricular end-diastolic volume (LVED), left ventricular end-systolic volume (LVES), left atrial (LA) volumes and right atrial (RA) volumes with and without indexing for body surface area. After baseline assessments, patients were then infused a total repletion dose of iron isomaltoside or an equivalent volume of normal saline placebo. Endpoints were then reassessed 2 weeks later. A Student's t-test or a Fisher's Exact test were statistically used to assess the baseline characteristics between the groups. An ANCOVA was used to statistically compare the week 2 endpoint results between the groups with adjustment for each variables baseline value.

[3] = IDA-03 Phase III study: protocol defined cardiovascular adverse events; format: in vivo, human; settings: IDA-03 study, 989 vs 494 patients, within 8 weeks
Experimental: (§1) Two Phase III randomized, open-label, comparative safety and efficacy studies were performed in relation to treatment with iron isomaltoside (“IIM”, tradename Monofer®, Monoferric®) and iron sucrose (“IS”, trade name Venofer®) in adult human subjects with iron deficiency anaemia and non-dialysis-dependent chronic kidney disease. These studies allowed comparing the incidence of treatment-emergent cardiovascular adverse events in particular in patients with cardiovascular risk factors.
(§2) The studies were randomized, open-label, comparative studies. Subjects with iron deficiency anaemia (IDA) were randomized 1:1 to one treatment course of one of two treatments. Iron isomaltoside 1000 was administered as a single dose of 1000 mg of elemental iron. Iron sucrose was administered as 200 mg slow intravenous bolus injections according to its US label and repeated up to 5 times to reach a cumulative dose of 1000 mg. […]

[4] = CKD-04 Phase III study: protocol defined cardiovascular adverse events; format: in vivo, human; settings: for composite cardiovascular events (incidence, % of patients): CKD-04 study, IIM 1000 mg single dose (1019 patients) vs iron sucrose 5 x 200 mg (506 patients), within 8 weeks
Experimental: as §1, §2

[5] = 20 elderly CHF patients, cited from earlier work
[6] = Combined CKD-04/IDA-03 studies: change from baseline in hemoglobin; format: in vivo, human
Experimental: The primary efficacy outcome measure was the ability to increase Hb (g/dL) within 8 weeks.
The co-primary efficacy endpoint was analysed using a restricted maximum likelihood (REML)-based mixed model for repeated measures (MMRM) approach. All subjects in the intention-to-treat (ITT) analysis set with post baseline Hb data was to be included with their observed data. The model included the fixed, categorical effects of treatment (iron isomaltoside and iron sucrose), week, treatment-by-week interaction, strata, as well as the continuous, fixed covariates of baseline Hb value and baseline Hb-by-week interaction. An unstructured (co)variance structure was used to model the within-subject errors. […] The Kenward-Roger approximation was to be used to estimate the denominator degrees of freedom. The primary comparisons will be the contrasts between iron isomaltoside and iron sucrose at week 8 based on the least squares means for the treatment-by-week interaction effect. The estimated mean difference based on this model was reported with two-sided symmetric 95% CI, and if the lower bound of the 95% CI is >−0.5 g/dL, the efficacy objective has been met.
The following efficacy laboratory parameters were analysed: • Hb: Hemoglobin was analyzed by the Coulter LH 750 System. Lytic reagents were used for the complete blood count parameters to prepare the blood so that the system could measure the amount of hemoglobin. The lytic reagent rapidly and simultaneously destroyed the erythrocytes and converted the substantial proportion of the hemoglobin to a stable pigment. The absorbance of the pigment was directly proportional to the hemoglobin concentration in the sample. […] A chemiluminescent substrate, Lumi-Phos* 530, was added to the reaction vessel and light generated by the reaction was measured with a luminometer. • TSAT (s-iron and transferrin will be collected to calculate the TSAT; TSAT=(iron μg/dL/transferrin mg/dL)×70.9). • S-iron: Serum iron (s-iron) was measured by a calorimetric assay using Roche automated clinical chemistry analyzer based on a immunoturbidimetric assay.

[7] = single total dose infusion; 2 weeks post-infusion; cited from earlier work
[8] = iron-deficient CHF patients with LVEF ≤45%; single total dose infusion (Jaumdally et al., 2019); cited from earlier work
[9] = Combined CKD-04/IDA-03 studies: treatment-emergent cardiovascular and congestive heart failure adverse events; format: in vivo; settings: for composite cardiovascular events (incidence, % of patients): 2008 patients on IIM, p=0.0176; for treatment-emergent congestive heart failure adverse events (% of patients) / worsening/exacerbation of heart failure (% of cases): all patients with CHF
Experimental: as §1
The studies were randomized, open-label, comparative studies. Subjects with iron deficiency anaemia (IDA) were randomized 1:1 to one treatment course of one of two treatments. Iron isomaltoside 1000 was administered as a single dose of 1000 mg of elemental iron. Iron sucrose was administered as 200 mg slow intravenous bolus injections according to its US label and repeated up to 5 times to reach a cumulative dose of 1000 mg.
Said protocol defined cardiovascular adverse events were as follows: • (1) Congestive heart failure requiring hospitalization or medical intervention: • Congestive heart failure requiring hospitalization or medical intervention was defined as meeting the following criteria: • Requires hospitalization defined as an admission to an inpatient unit or a visit to an emergency department that results in at least a 12-hour stay (or a date change if the time of admission/discharge is not available); AND • Clinical manifestation of congestive heart failure including at least one of the following: new or worsening dyspnoea, orthopnoea, paroxysmal nocturnal dyspnoea, oedema, pulmonary basilar crackles, jugular venous distension, or radiological evidence of worsening heart failure; AND • Additional/increased therapy: • Intravenous treatment with diuretic, inotrope, or vasodilator therapy; OR • Mechanical or surgical intervention (mechanical circulatory support, heart transplantation, or ventricular pacing to improve cardiac function) or the use of ultrafiltration, hemofiltration, or dialysis that is specifically directed at treatment of heart failure. • (2) Arrhythmia: • Arrhythmia was defined as any symptomatic deviation from normal sinus rhythm experienced by the subject that results in an evaluation by a health care provider. The evaluation included a physical examination during an outpatient visit, an ECG, or a hospital admission. […]

Substance: ferric carboxymaltose
- effect on iFGF23 ([1]; see WO 2013/134273 A1): significantly increases

Substance: ferric derisomaltose [iron isomaltoside 1000]
- P-wave dispersion, changes in individual patients (FIG. 5) ([2]; ANCOVA P-value 0.007, unchanged in saline placebo group): shortened
- reduction of P-wave dispersion ([2]; at 2 weeks after total repletion dose, vs saline placebo, P=0.007): 10 ms
- P-wave dispersion, adjusted difference between the groups (ANCOVA) ([2]; at 2 weeks, 95% confidence interval −17 & −3 msec, P=0.007): -10 ms
- P-wave dispersion difference after adjusting for size of the atria (indexed LA and RA volumes) ([2]; at 2 weeks, 95% confidence interval −18 & −4 msec, P=0.005): -11 ms
- effect on the other endpoints (HR, PR, QRS, QT, QTc, LVEF, LV and atrial volumes) ([2]; at 2 weeks, ANCOVA): no significant effect
- composite cardiovascular events (incidence, % of patients) [3]: 0.8%
- composite cardiovascular events (incidence, % of patients) ([3]; listed as iron): 1.2%
- risk for increasing iFGF23 and triggering iFGF23-mediated effects ([1]; clinical trials, Wolf et al., 2019): low
- probability of not experiencing an adjudicated composite adverse cardiovascular event, compared to iron sucrose ([4]; CKD-04, after 8 weeks, Kaplan-Meier): significantly higher
- composite cardiovascular events (incidence, % of patients) [4]: 4.1%
- QoL measures [5]: improved
- tolerability ([5]; single fast intravenous infusion at relatively high doses without test dose): very well tolerated
- increase in Hb from baseline compared to iron sucrose ([6]; all patients, weeks 1 and 2, p<0.001): higher increase
- change in Hb from baseline compared to iron sucrose (primary efficacy endpoint) ([6]; all patients, weeks 4 and 8): non-inferiority
- increase in Hb from baseline ([6]; patients with congestive heart failure in medical history, week 1 and 2): higher increase
- iron stores [7]: repleted
- skeletal muscle energetics [7]: augmented
- P wave dispersion [8]: attenuate
- incidence on composite CV endpoint (and most sub-items including death from any cause) compared to Venofer and FCM (CDER report) ([9]; Ferwon studies vs Injectafer FDA CDER report): lower
- decrease of composite cardiovascular events when treated with iron isomaltoside 1000 versus iron sucrose ([9]; combined CKD-04/IDA-03): 60%
- composite cardiovascular events (incidence, % of patients) ([9]; combined CKD-04/IDA-03): 2.5%
- treatment-emergent congestive heart failure adverse events (% of patients) ([9]; combined CKD-04/IDA-03): 1.8%
- worsening/exacerbation of heart failure (% of cases) ([9]; combined CKD-04/IDA-03): 1.8%
- rates of congestive heart failure, hypertension, atrial fibrillation, hypotension, and cardiac arrest compared to iron sucrose ([9]; in each study (CKD-04, IDA-03, combined)): lower
- incidence for congestive heart failure ([9]; patients with CV risk): 1.2%
- worsening of congestive heart failure ([9]; patients with CV risk): 1.2%
- incidence for congestive heart failure ([9]; patients with CV risk and CHF): 1.4%
- worsening of congestive heart failure ([9]; patients with CV risk and CHF): 1.4%

Substance: iron sucrose
- composite cardiovascular events (incidence, % of patients) [4]: 6.9%
- composite cardiovascular events (incidence, % of patients) ([9]; combined CKD-04/IDA-03): 4.1%
- treatment-emergent congestive heart failure adverse events (% of patients) ([9]; combined CKD-04/IDA-03): 6.5%
- worsening/exacerbation of heart failure (% of cases) ([9]; combined CKD-04/IDA-03): 5.4%
- incidence for congestive heart failure ([9]; patients with CV risk): 3.5%
- worsening of congestive heart failure ([9]; patients with CV risk): 1.7%
- incidence for congestive heart failure ([9]; patients with CV risk and CHF): 4.9%
- worsening of congestive heart failure ([9]; patients with CV risk and CHF): 3.7%
